Source: BigSolDB 2.1

Oc1cccc(/C=N\NC(=S)NC2CCCCC2)c1
Settings | solubility (mole fraction)
in PEG-400, 298.15 K | 0.071
in PEG-400, 308.15 K | 0.0774
in PEG-400, 318.15 K | 0.0845
in PEG-400, 328.15 K | 0.0929
in PEG-400, 338.15 K | 0.101

solubility (mole fraction)
Settings | in ethanol | in ethyl acetate | in ethylene glycol | in isopropanol | in propylene glycol | in transcutol | in water
298.15 K | 0.0135 | 0.0104 | 0.00185 | 0.0302 | 0.0319 | 0.0938 | 3.9e-07
308.15 K | 0.0141 | 0.0117 | 0.00225 | 0.0313 | 0.0332 | 0.0978 | 5.85e-07
318.15 K | 0.0149 | 0.0132 | 0.0029 | 0.0323 | 0.0345 | 0.102 | 9.09e-07
328.15 K | 0.0156 | 0.0147 | 0.00358 | 0.0335 | 0.036 | 0.106 | 1.36e-06
338.15 K | 0.0164 | 0.0167 | 0.00454 | 0.0345 | 0.0376 | 0.111 | 1.88e-06
